Patent publication EP0974573A1, “PHENYLPROPENONE COMPOUNDS AND MEDICINES CONTAINING THE SAME” (Kabushiki Kaisha Yakult Honsha, priority 1997, dated 1998)

Assays:
ACAT = experiment: Screening toward substances having ACAT activity inhibitory effects; format: biochemical; conditions: screening finding, no value given
rat-derived ACAT = experiment: Inhibitory effects on rat-derived ACAT (Test 1); format: biochemical; conditions: crude enzyme from microsome protein fractions of rat liver, (14C)-oleoyl-CoA substrate, 37°C
Procedure: To test effects on ACAT, a reaction was conducted in vitro to form (^14C)-cholesteryl oleate from endogeneous cholesterol in the presence of (^14C)-oleoyl-CoA as a substrate by using a crude enzyme prepared from microzome protein fractions of a rat liver.
The reaction mixture had the following composition: 20 µℓ of microsome protein (1.83 mg/mℓ), 20 µℓ of (^14C)-oleoyl-CoA (5 µCi/mℓ, BSA: 96 nmol/mℓ), 106 µℓ of 100 mM phosphate buffer (containing 5 mM of dithiothreitol, pH 7.4) and a sample dissolved in 4 µℓ of methanol or dimethyl sulfoxide; 150 µℓ in total.
The reaction was conducted at 37°C. After an elapse of a predetermined reaction time (18 minutes in general), a 2:1 mixture of chloroform and methanol (5.65 mℓ) was added to terminate the reaction. A 0.04 N aquous solution of hydrochloric acid (0.98 mℓ) and as a carrier, cholesteryl oleate were added, followed by extraction for 20 minutes on a shaking apparatus. The mixture was then allowed to stand overnight in a cold dark place. On the following day, the separated lower chloroform layer was extracted in its entirety and was dried under a nitrogen gas stream. The remaining upper layer was added with the lower layer (5.65 mℓ) of the Folch's partition solution, and was extracted again. After the mixture was allowed to stand overnight in a dark place, the lower layer was drawn in its entirety. This lower layer was combined with the lower chloroform layer fraction, which had already been dried to solid, and the mixture was then dried to solid.
The solid was then dissolved in chlorofrom (200 µℓ), and the solution was coated in its entirety on a G60 plate (aluminum sheet) for silica gel thin layer chromatography. After the solid was developedover 10 cm with a 10:190 mixture of diethyl ether and petroleum ether, autoradiography was conducted and the formation of (^14C)-colesteryl oleate was confirmed. This section was then cut off. The radioactivity of each sample was measured by subjecting it to liquid scintillation counting for 5 minutes in toluene or was measured for 30 minutes by a "Betascope" (manufactured by BETA-GEN INC. The results so obtained are shown in Table 1. Table 1

SD rats = experiment: Plasma cholesterol elevation inhibitory effects on rats loaded with high cholesterol diet, feed-mixed administration (Test 3); format: in vivo, rat; conditions: 0.005% of compound added to hyperlipemia inducing diet, ad libitum 3 days
Text: Using 5-week old male SD rats (120-150 g, 10 rats per group, individual feeding), plasma cholesterol elevation inhibitory effects of various compounds in the Examples on rats were studied. To a control group, a feed which had been prepared by adding 1.5% of cholesterol, 0.5% of cholic acid, 10% of coconut oil and 10% of sugar to "F-2 Diet" (product of FUNABASHI FARM CO., LTD.) was given ad libitum as a hyperlipemia inducing diet.
To each test-compound-administered group, on the other hand, a feed which had been prepared by adding 0.005% of the corresponding compound in the Examples to the hyperlipemia inducing diet of the above-described composition was given ad libitum. Further, a normal diet group to which a feed similar to the hyperlipemia inducing diet except for the exclusion of cholesterol was also tested similarly. As a testing method, after these feeds were given ad libitum for 3 days, bloods were drawn on the 4th day from the abdominal aortas of the individual rats under anesthesia with Nembutal. Subsequent to collection of plasma from each blood sample, the plasma cholesterol was quantitated by a "DETERMINER TC555 KIT" (product of Kyowa Medex Co., Ltd.) while the HDL cholesterol was quantitated by "DETERMINER HDL KIT" (product of Kyowa Medex Co., Ltd.). The liver cholesterol was measured by extracting it in accordance with the Folch's method and then measuring it with a "DETERMINER TC555 KIT". Statistical processing of the data so obtained was conducted by the Danett's test.

[1] = tested on: J774.1 strain, an established cell line of mouse macrophage; experiment: Inhibitory effects on the accumulation of cholesterol esters in macrophage (Test 2); format: cell-based; conditions: J774.1 mouse macrophage, 12 hours incubation with cholesterol liposomes
Procedure: Inhibitory effects on the accumulation of cholesterol esters in macrophage were tested using J774.1 strain, an established cell line of mouse macrophage.
Metabolism of LDL in endothelial cells or smooth muscle cells causes downregulation of the LDL receptor by excess free cholesterol in the cells, but in a macrophage, uptake of modified lDL takes place via a scavenger receptor. As no regulation is applied to this pathway, cholesterol esters progressively accumulate without any limitation.
It was therefore studied whether or not corydaline would inhibit intracellular accumulation of cholesterol esters by having liposomes, which were formed of […] cholesterol and phosphatidylcholine, uptaken in macrophage cells and then causing them to act on acyl-CoA:cholesterol acyltransferase which existed on rough-surfaced endoplasmic reticula.
The macrophage cells were incubated for 2 days under 5% CO2 on an RPMI 1640 medium (product of NISSUI PHARMACEUTICAL CO., LTD.) which had been added with 10% fetal bovine serum, penicilin (50 U/mℓ) and streptomycin (50 µg/mℓ). Trypsinization was then conducted, and cells attached to the bottom of each well were peeled off and formulated into a cell suspension. The cells were washed with a fresh supply of the above-described culture medium, and the cell solution was then seeded at 2 x 10^6 cells/mℓ on a 24-well multiple well plate ("25820-24", product of CORNING INC.). After incubation at 37°C under 5% CO2 for 37 hours, the culture medium was replaced with a fresh supply of the above-described culture medium and, after a 0.3 M glucose solution (40 µℓ) with cholesterol [80 µg; containing 0.4 µCi of (^3H)-cholesterol] and phosphatidylcholine (160 µg) contained therein and a methanol solution (10 µℓ)with a test sample dissolved therein were added, incubation was conducted for 12 hours. These procedures were carried out aseptically.
After completion of the incubation, cells attached to each bottom were washed 5 times with a serum-free RPMI 1640 medium by a graduated pipet, and isopropanol (1 mℓ) was added to extract intracellular cholesterol and formed cholesterol esters. The extract was coated in its entirety on a silica gel thin layer chromatography ("Art 5553", product of MERCK & Co., INC.) and subsequent to development with a 80:20:2 mixture of hexane, ethyl ether and formic acid, autoradiography was performed.
A section, which contained ^3H-labelled cholesterol esters and cholesterol, was cut off. Its radioactivity was measured by a liquid scintillation counter and compared with a control, whereby a cholesterol ester accumulation inhibition rate was determined.

Row | SMILES | IC50 (rat-derived ACAT) [nM] | Inhibitory rate (%) of plasma total cholesterol elevation in rat (SD rats) [%] | also measured
1 | COc1cc(/C=C/C(=O)CCCCc2ccccc2)ccc1O [yakutinone B] |  |  | ACAT activity inhibitory effects (ACAT): exhibits ACAT activity inhibitory effects
2 | CCCCCCCCCCCOc1c(OC)cc(/C=C/C(=O)NN2CCN(c3ccc(C)c(C)c3)CC2)cc1OC [Compound 9, N-[4-(3,4-dimethylphenyl)-1,4-diazacyclohexyl]-(2E)-3-(3,5-dimethoxy-4-undecyloxyphenyl)-2-propenamide] | 45 | 28 | 
3 | COc1cc(/C=C/C(=O)N2CCN(c3ccc(C)cc3C)CC2)cc(OC)c1OCCOc1ccccc1 [Compound 24, N-[4-(2,4-dimethylphenyl)-1,4-diazacyclohexyl]-(2E)-3-[3,5-dimethoxy-4-(2-phenoxy)ethyloxy]-2-propenamide] |  | 20 | IC50 [1]: 720 nM
4 | CCCCCCCCCCOc1c(OC)cc(/C=C/C(=O)Nc2ccc(Oc3ccccc3)cc2)cc1OC [Compound 55, N-(4-phenoxyphenyl)-(2E)-3-(3,5-dimethoxy-4-decyloxyphenyl)-2-propenamide] |  | 34 | 
5 | CCCCCCCCCCOc1c(OC)cc(/C=C/C(=O)NCCOc2ccccc2)cc1OC [Compound 52, N-(2-phenoxyethyl)-(2E)-3-(3,5-dimethoxy-4-decyloxyphenyl)-2-propenamide] |  | 23 | 

Continued, in another order:

Row | IC50 (rat-derived ACAT) [nM] | SMILES | Inhibitory rate (%) of plasma total cholesterol elevation in rat (SD rats) [%] | also measured
6 | 35 | COc1ccc(NC(=O)/C=C/c2cc(OC)c(OCc3ccccc3)c(OC)c2)cc1 [Compound 72, N-(4-methoxyphenyl)-(2E)-3-(3,5-dimethoxy-4-benzyloxyphenyl)-2-propenamide] |  | IC50 ([1]; Mus musculus, J774.1, 12 h): 170 nM
7 | 71 | CCCCCCCCCCCCOc1c(OC)cc(/C=C/C(=O)NN2CCN(c3ccc(C)c(C)c3)CC2)cc1OC [Compound 10, N-[4-(3,4-dimethylphenyl)-1,4-diazacyclohexyl]-(2E)-3-(3,5-dimethoxy-4-dodecyloxyphenyl)-2-propenamide] | 33 | 
8 | 47 | COc1cc(/C=C/C(=O)Nc2ccc(C)c(C)c2)cc(OC)c1OCc1ccccc1 [Compound 65, N-(3,4-dimethylphenyl)-(2E)-3-(3,5-dimethoxy-4-benzyloxyphenyl)-2-propenamide] |  | IC50 ([1]; Mus musculus, J774.1, 12 h): 46 nM
